Common to all, as to format: functional
In one assay the test system is MCF7. Kind of assay: Cytotoxicity against human MCF7 cells assessed as cell survival rate at 5 uM incubated for 48 hrs by CCK8 assay relative to control.
Assay [1] relates to NCI/ADR-RES. Briefly: Cytotoxicity against human MCF7ADR cells assessed as cell survival rate at 5 uM incubated for 48 hrs by CCK8 assay relative to control. Background: Tetrazolium assays rely on reduction of a dye to a coloured formazan, in cell work by metabolically active cells.
Assay [2] deals with NCI/ADR-RES. Briefly: Reversal activity against doxorubicin-mediated resistance in human MCF7ADR cells assessed as reversal fold by measuring ratio of doxorubicin IC50 to doxorubicin IC50 in presence of test compound at 5 uM incubated for 48 hrs by CCK8 assay.

This is an account of results in ChEMBL document CHEMBL5620359, “Discovery of 2,5-disubstituted furan derivatives featuring a benzamide motif for overcoming P-glycoprotein mediated multidrug resistance in MCF-7/ADR cell” (Eur J Med Chem, 2023).

Consider `COc1cc2c(cc1OC)CN(C(=O)c1ccc(-c3ccccc3NC(=O)c3ccccc3OC)o1)CC2`, for which the Activity in the assay on MCF7 worked out at 81.2%; in the assay on NCI/ADR-RES [1], 74.5%. The “fold change (FC)” value in the assay on NCI/ADR-RES [2] worked out at 20.8.
In the same order, the values of `COc1ccc(S(=O)(=O)N(c2ccc(-c3ccc(C(=O)N4CCc5cc(OC)c(OC)cc5C4)o3)cc2)S(=O)(=O)c2ccc(OC)cc2)cc1` are 92.6%, 94.6% and 21.9.
In the same order, the values of `COc1cc2c(cc1OC)CN(C(=O)c1ccc(-c3ccc(NC(=O)c4ccc(Cl)cc4)cc3)o1)CC2` are 50.1%, 79.8% and 124.
Regarding `COc1cc2c(cc1OC)CN(C(=O)c1ccc(-c3ccc(NC(=O)c4ccccc4[N+](=O)[O-])cc3)o1)CC2`, the Activity came to 97.8% with MCF7 and 99.5% with NCI/ADR-RES [1]. The “fold change (FC)” value with NCI/ADR-RES [2] was determined as 18.6.
On to `COc1cc2c(cc1OC)CN(C(=O)c1ccc(-c3ccc(NC(=O)c4ccccc4F)cc3)o1)CC2`, for which the results for the Activity in the assay on MCF7 and in the assay on NCI/ADR-RES [1] were 77.1% and 99.2%, respectively. Moreover, in the assay on NCI/ADR-RES [2], the “fold change (FC)” value came out at 11.
For `COc1cc2c(cc1OC)CN(C(=O)c1ccc(-c3cccc(NC(=O)c4ccccc4Cl)c3)o1)CC2`, the Activity is listed as 67.3% in the assay with MCF7 and 80.8% with NCI/ADR-RES [1]. Also, in the assay with NCI/ADR-RES [2], the “fold change (FC)” value was 32.8.
With `C/C=C/C[C@@H](C)[C@@H](O)[C@H]1C(=O)N[C@@H](CC)C(=O)N(C)CC(=O)N(C)[C@@H](CC(C)C)C(=O)N[C@@H](C(C)C)C(=O)N(C)[C@@H](CC(C)C)C(=O)N[C@@H](C)C(=O)N[C@H](C)C(=O)N(C)[C@@H](CC(C)C)C(=O)N(C)[C@@H](CC(C)C)C(=O)N(C)[C@@H](C(C)C)C(=O)N1C` [CYCLOSPORINE], the Activity was found to be 87.5% in the assay with MCF7 and 89.4% with NCI/ADR-RES [1]. The “fold change (FC)” value in the assay on NCI/ADR-RES [2] was 59.1.
The corresponding values for `COc1cc2c(cc1OC)CN(C(=O)c1ccc(-c3ccc(NC(=O)c4ccccc4Cl)cc3)o1)CC2` are 65.5%, 82.5% and 66.9.
With `COc1cc2c(cc1OC)CN(C(=O)c1ccc(-c3ccc(NC(=O)c4ccc(N(C)C)cc4)cc3)o1)CC2`, the Activity stood at 98.6% in the assay with MCF7 and 71.8% in the assay with NCI/ADR-RES [1]. Further, the “fold change (FC)” value in the assay with NCI/ADR-RES [2] is on record as 40.
Take `COc1cc2c(cc1OC)CN(C(=O)c1ccc(-c3ccc(NC(=O)c4ccc(C(C)(C)C)cc4)cc3)o1)CC2`: the Activity with MCF7 is reported as 44.9%; in the assay with NCI/ADR-RES [1], 61.1%. Moreover, the “fold change (FC)” value in the assay on NCI/ADR-RES [2] was 164.
Take `COc1cccc(C(=O)Nc2ccccc2-c2ccc(C(=O)N3CCc4cc(OC)c(OC)cc4C3)o2)c1`: the Activity with MCF7 is listed as 81.2%; in the assay on NCI/ADR-RES [1], 83%. The “fold change (FC)” value with NCI/ADR-RES [2] is recorded as 26.6.
Consider `COc1cc2c(cc1OC)CN(C(=O)c1ccc(-c3ccc(NC(=O)c4ccc([N+](=O)[O-])cc4)cc3)o1)CC2`, for which the Activity with MCF7 was determined as 68.9%; in the assay with NCI/ADR-RES [1], 82.2%. For the same compound, the “fold change (FC)” value with NCI/ADR-RES [2] is listed as 50.9.
The corresponding values for `COc1cc2c(cc1OC)CN(C(=O)c1ccc(-c3ccc(NC(=O)c4ccc(C#N)cc4)cc3)o1)CC2` are 85.6%, 56.7% and 41.
As to `COc1cc2c(cc1OC)CN(C(=O)c1ccc(-c3cccc(NC(=O)c4cccs4)c3)o1)CC2`, the Activity with NCI/ADR-RES [1] stood at 61.4%. Further, the “fold change (FC)” value with NCI/ADR-RES [2] was determined as 46.6.
As to `COc1cc2c(cc1OC)CN(C(=O)c1ccc(-c3cccc(NC(=O)c4ccccc4OC)c3)o1)CC2`, the Activity in the assay on MCF7 is 53.6%; in the assay with NCI/ADR-RES [1], 65%. Also, the “fold change (FC)” value in the assay with NCI/ADR-RES [2] stood at 44.2.
Take `COc1cc2c(cc1OC)CN(C(=O)c1ccc(-c3cccc(NC(=O)c4ccccc4)c3)o1)CC2`: the Activity in the assay with NCI/ADR-RES [1] is on record as 76.1%. Also, the “fold change (FC)” value in the assay with NCI/ADR-RES [2] was determined as 45.8.
Consider `COc1ccc(NC(=O)Nc2ccc(-c3ccc(C(=O)N4CCc5cc(OC)c(OC)cc5C4)o3)cc2)cc1`, for which the Activity in the assay on MCF7 worked out at 99.2%; in the assay with NCI/ADR-RES [1], 98.2%.
Take `COc1cc2c(cc1OC)CN(C(=O)c1ccc(-c3ccc(NC(=O)c4cccc([N+](=O)[O-])c4)cc3)o1)CC2`: the Activity in the assay with MCF7 stood at 79.2%; in the assay on NCI/ADR-RES [1], 71%. Besides, the “fold change (FC)” value in the assay with NCI/ADR-RES [2] is given as 53.5.
As to `COc1ccc(CNc2ccc(-c3ccc(C(=O)N4CCc5cc(OC)c(OC)cc5C4)o3)cc2)cc1`, the Activity in the assay with MCF7 is reported as 99.7%; in the assay with NCI/ADR-RES [1] it was 98.2%. Further, the “fold change (FC)” value in the assay on NCI/ADR-RES [2] was 5.2.
Consider `COc1cc2c(cc1OC)CN(C(=O)c1ccc(-c3ccc(NC(=O)c4c(F)c(F)c(F)c(F)c4F)cc3)o1)CC2`, for which the values for the Activity in the assay on MCF7 and with NCI/ADR-RES [1] were 92.4% and 98.2%, respectively. Besides, the “fold change (FC)” value with NCI/ADR-RES [2] is 45.4.
With `COc1cc2c(cc1OC)CN(C(=O)c1ccc(-c3cccc(NC(=O)c4cccc([N+](=O)[O-])c4)c3)o1)CC2`, the Activity in the assay on MCF7 came out at 69.6%; in the assay on NCI/ADR-RES [1] it was 76.5%. In addition, the “fold change (FC)” value with NCI/ADR-RES [2] is recorded as 23.
The corresponding values for `COc1ccc(C(=O)Nc2cccc(-c3ccc(C(=O)N4CCc5cc(OC)c(OC)cc5C4)o3)c2)c(OC)c1` are 84.7%, 64.9% and 17.5.
The corresponding values for `COc1cc2c(cc1OC)CN(C(=O)c1ccc(-c3ccc(NC(=O)c4cccc(Cl)c4)cc3)o1)CC2` are 74.8%, 83.3% and 267.6.
Consider `COc1cc2c(cc1OC)CN(CCc1ccc(NC(=O)c3cc(OC)c(OC)cc3NC(=O)c3cnc4ccccc4c3)cc1)CC2`, for which the Activity with MCF7 was determined as 80.7%; in the assay on NCI/ADR-RES [1], 46.7%. For the same compound, in the assay with NCI/ADR-RES [2], the “fold change (FC)” value came to 221.1.
With `COc1ccc(C(=O)Nc2ccc(-c3ccc(C(=O)N4CCc5cc(OC)c(OC)cc5C4)o3)cc2)c(OC)c1`, the Activity in the assay on MCF7 was 63.7%; with NCI/ADR-RES [1], 66.7%. Also, in the assay with NCI/ADR-RES [2], the “fold change (FC)” value is reported as 36.8.
In the case of `COc1cc2c(cc1OC)CN(C(=O)c1ccc(-c3ccccc3NC(=O)c3cccc(Cl)c3)o1)CC2`, the Activity stood at 53% in the assay on MCF7 and 80.4% in the assay on NCI/ADR-RES [1]. In the assay on NCI/ADR-RES [2], the “fold change (FC)” value is 45.
In the case of `COc1cc2c(cc1OC)CN(C(=O)c1ccc(-c3ccc(NC(=O)c4ccc(OC(F)(F)F)cc4)cc3)o1)CC2`, the Activity in the assay with MCF7 is 61.3%; with NCI/ADR-RES [1], 72.8%. Besides, the “fold change (FC)” value in the assay on NCI/ADR-RES [2] was determined as 118.3.
For the compound `COc1cc2c(cc1OC)CN(C(=O)c1ccc(-c3cccc(NC(=O)c4ccccc4[N+](=O)[O-])c3)o1)CC2`, the Activity with MCF7 is recorded as 73.4%; with NCI/ADR-RES [1], 62.6%. Also, the “fold change (FC)” value in the assay with NCI/ADR-RES [2] stood at 19.5.
Consider `COc1ccc(-c2ccc(C(=O)N3CCc4cc(OC)c(OC)cc4C3)o2)cc1`, for which the Activity in the assay with NCI/ADR-RES [1] is 94.1%. Also, in the assay with NCI/ADR-RES [2], the “fold change (FC)” value is reported as 9.1.
For the compound `COc1cc2c(cc1OC)CN(C(=O)c1ccc(-c3ccccc3NC(=O)c3ccccc3)o1)CC2`, the Activity in the assay on NCI/ADR-RES [1] worked out at 70.9%. In addition, the “fold change (FC)” value in the assay on NCI/ADR-RES [2] is on record as 7.5.
Regarding `COc1ccc(CCN(C)CCCC(C#N)(c2ccc(OC)c(OC)c2)C(C)C)cc1OC` (configuration not stated), the figures for the Activity in the assay with MCF7 and in the assay on NCI/ADR-RES [1] were 99.6% and 75%, respectively.
